# From patent publication US20190322676A1, “CERAMIDE GALACTOSYLTRANSFERASE INHIBITORS FOR THE TREATMENT OF DISEASE” (BioMarin Pharmaceutical Inc., priority 2016, published 2019)
# Counter-ions that a name gives are not always drawn.
# Molecular target: T1, human CGT (ceramide galactosyltransferase), CHO/CGT lysate (Homo sapiens, UniProt Q16880)
# T1 construct: Full-length human CGT cDNA was cloned into the BamH1/Xho1 site of pcDNA3.1 (+); expressed in transfected cells; host or cells: Chinese hamster ovary (CHO) cells; lysate prepared with M-PER
# T1 sequence (Q16880 21-541): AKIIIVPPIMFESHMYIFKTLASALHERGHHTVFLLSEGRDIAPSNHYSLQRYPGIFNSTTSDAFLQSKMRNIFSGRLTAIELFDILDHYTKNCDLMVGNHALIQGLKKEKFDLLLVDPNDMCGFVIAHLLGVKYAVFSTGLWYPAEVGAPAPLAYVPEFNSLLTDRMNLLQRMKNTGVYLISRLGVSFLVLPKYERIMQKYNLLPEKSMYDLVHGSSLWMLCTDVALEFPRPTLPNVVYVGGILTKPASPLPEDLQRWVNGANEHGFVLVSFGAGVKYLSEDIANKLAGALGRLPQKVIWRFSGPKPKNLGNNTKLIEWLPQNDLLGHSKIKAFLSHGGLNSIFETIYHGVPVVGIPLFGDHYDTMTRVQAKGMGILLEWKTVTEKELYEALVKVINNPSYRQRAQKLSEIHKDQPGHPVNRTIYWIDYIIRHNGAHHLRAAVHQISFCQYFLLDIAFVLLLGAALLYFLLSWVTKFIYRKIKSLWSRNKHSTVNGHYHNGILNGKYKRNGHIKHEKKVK
# Assay: CGT enzyme assay, RapidFire/MS/MS readout (Table 1 ranges with one asterisk *)
# Type: biochemical
# Conditions: RapidFire method (range with one asterisk *)
# In short: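 IC50s come from variable-slope dose-response fits of internal-standard-normalized C6-NBD-dihydro-galactosylceramide, measured by RapidFire/MS/MS (ESI negative). Reactions: 1 h, 37 °C, human CGT-expressing CHO lysate (4 μg), 0.001–50 μM compound, 10 μM NBD-dihydro-ceramide, 17.5 μM UDP-galactose, 0.5% DMSO, pH 7.2; 0.01% Tween 80 added for ** values.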
row,SMILES,IC50
1,"CN([C@H](C(=O)N1C2CCC1CC(N)C2)C(F)(F)c1ccc(Oc2ccccc2)cc1)S(=O)(=O)c1ccc(OCC2CCCCC2)cc1 (stereo partly drawn) [Compound 85-1, N-((2R)-3-(3-amino-8-azabicyclo[3.2.1]octan-8-yl)-1,1-difluoro-3-oxo-1-(4-phenoxyphenyl)propan-2-yl)-4-(cyclohexylmethoxy)-N-methylbenzene sulfonamide trifluoroacetate]",1 to 10 µM
2,"CN([C@@H](C(=O)N1C2CCC1CC(N)C2)C(F)(F)c1ccc(Oc2ccccc2)cc1)S(=O)(=O)c1ccc(OCC2CCCCC2)cc1 (stereo partly drawn) [Compound 85-2, N-((2S)-3-(3-amino-8-azabicyclo[3.2.1]octan-8-yl)-1,1-difluoro-3-oxo-1-(4-phenoxyphenyl)propan-2-yl)-4-(cyclohexylmethoxy)-N-methylbenzenesulfonamide trifluoroacetate]",10 to 30 µM
3,"NC1CC2CCC(C1)N2C(=O)[C@@H](NS(=O)(=O)c1ccc2cc(OC3CCCC3)ccc2c1)C(F)(F)c1ccc(Oc2ccccc2)cc1 (stereo partly drawn) [Compound 86-1, N-((2R)-3-(3-amino-8-azabicyclo[3.2.1]octan-8-yl)-1,1-difluoro-3-oxo-1-(4-phenoxyphenyl)propan-2-yl)-6-(cyclopentyloxy)naphthalene-2-sulfonamide trifluoroacetate]",< 1 µM
4,"NC1CC2CCC(C1)N2C(=O)[C@H](NS(=O)(=O)c1ccc2cc(OC3CCCC3)ccc2c1)C(F)(F)c1ccc(Oc2ccccc2)cc1 (stereo partly drawn) [Compound 86-2, N-((2S)-3-(3-amino-8-azabicyclo[3.2.1]octan-8-yl)-1,1-difluoro-3-oxo-1-(4-phenoxyphenyl)propan-2-yl)-6-(cyclopentyloxy)naphthalene-2-sulfonamide trifluoroacetate]",1 to 10 µM
5,"CN([C@H](C(=O)N1C2CCC1CC(N)C2)C(F)(F)c1ccc(Oc2ccccc2)cc1)S(=O)(=O)c1ccc2cc(OC3CCCC3)ccc2c1 (stereo partly drawn) [Compound 87-1, N-((2R)-3-(3-amino-8-azabicyclo[3.2.1]octan-8-yl)-1,1-difluoro-3-oxo-1-(4-phenoxyphenyl)propan-2-yl)-6-(cyclopentyloxy)-N-methylnaphthalene-2-sulfonamide trifluoroacetate]",< 1 µM
6,"CN([C@@H](C(=O)N1C2CCC1CC(N)C2)C(F)(F)c1ccc(Oc2ccccc2)cc1)S(=O)(=O)c1ccc2cc(OC3CCCC3)ccc2c1 (stereo partly drawn) [Compound 87-2, N-((2S)-3-(3-amino-8-azabicyclo[3.2.1]octan-8-yl)-1,1-difluoro-3-oxo-1-(4-phenoxyphenyl)propan-2-yl)-6-(cyclopentyloxy)-N-methylnaphthalene-2-sulfonamide trifluoroacetate]",1 to 10 µM
7,"NC1CC2CCC(C1)N2C(=O)[C@@H](NS(=O)(=O)c1ccc2c(cnn2CC2CCCC2)c1)C(F)(F)c1ccc(Cl)cc1 (stereo partly drawn) [Compound 88-1, N-((2R)-3-(3-amino-8-azabicyclo[3.2.1]octan-8-yl)-1-(4-chlorophenyl)-1,1-difluoro-3-oxopropan-2-yl)-1-(cyclopentylmethyl)-1H-indazole-5-sulfonamide]",1 to 10 µM
8,"NC1CC2CCC(C1)N2C(=O)[C@H](NS(=O)(=O)c1ccc2c(cnn2CC2CCCC2)c1)C(F)(F)c1ccc(Cl)cc1 (stereo partly drawn) [Compound 88-2, N-((2S)-3-(3-amino-8-azabicyclo[3.2.1]octan-8-yl)-1-(4-chlorophenyl)-1,1-difluoro-3-oxopropan-2-yl)-1-(cyclopentylmethyl)-1H-indazole-5-sulfonamide]",30 to 100 µM
9,"COc1cc(C(F)(F)[C@H](NS(=O)(=O)c2ccc3cc(OC4CCCC4)ccc3c2)C(=O)N2C3CCC2CC(N)C3)ccc1Br (stereo partly drawn) [Compound 89-1, N-((2R)-3-(3-amino-8-azabicyclo[3.2.1]octan-8-yl)-1-(4-bromo-3-methoxyphenyl)-1,1-difluoro-3-oxopropan-2-yl)-6-(cyclopentyloxy)naphthalene-2-sulfonamide]",< 1 µM
10,"COc1cc(C(F)(F)[C@@H](NS(=O)(=O)c2ccc3cc(OC4CCCC4)ccc3c2)C(=O)N2C3CCC2CC(N)C3)ccc1Br (stereo partly drawn) [Compound 89-2, N-((2S)-3-(3-amino-8-azabicyclo[3.2.1]octan-8-yl)-1-(4-bromo-3-methoxyphenyl)-1,1-difluoro-3-oxopropan-2-yl)-6-(cyclopentyloxy)naphthalene-2-sulfonamide]",1 to 10 µM
11,"CCCCOc1cccc(C(F)(F)[C@H](NS(=O)(=O)c2ccc3cc(OC4CCCC4)ccc3c2)C(=O)N2C3CCC2CC(N)C3)c1 (stereo partly drawn) [Compound 90-1, N-((2R)-3-(3-amino-8-azabicyclo[3.2.1]octan-8-yl)-1-(3-butoxyphenyl)-1,1-difluoro-3-oxopropan-2-yl)-6-(cyclopentyloxy)naphthalene-2-sulfonamide trifluoroacetate]",< 1 µM
12,"CCCCOc1cccc(C(F)(F)[C@@H](NS(=O)(=O)c2ccc3cc(OC4CCCC4)ccc3c2)C(=O)N2C3CCC2CC(N)C3)c1 (stereo partly drawn) [Compound 90-2, N-((2S)-3-(3-amino-8-azabicyclo[3.2.1]octan-8-yl)-1-(3-butoxyphenyl)-1,1-difluoro-3-oxopropan-2-yl)-6-(cyclopentyloxy)naphthalene-2-sulfonamide trifluoroacetate]",1 to 10 µM
13,"NC1CC2CCC(C1)N2C(=O)[C@@H](NS(=O)(=O)c1ccc2c(cnn2CC2CCCC2)c1)C(F)(F)c1ccc(C(F)(F)F)cc1 (stereo partly drawn) [Compound 92-1, N-((2R)-3-(3-amino-8-azabicyclo[3.2.1]octan-8-yl)-1,1-difluoro-3-oxo-1-(4-(trifluoromethyl)phenyl)propan-2-yl)-1-(cyclopentylmethyl)-1H-indazole-5-sulfonamide]",< 1 µM
14,"NC1CC2CCC(C1)N2C(=O)[C@H](NS(=O)(=O)c1ccc2c(cnn2CC2CCCC2)c1)C(F)(F)c1ccc(C(F)(F)F)cc1 (stereo partly drawn) [Compound 92-2, N-((2S)-3-(3-amino-8-azabicyclo[3.2.1]octan-8-yl)-1,1-difluoro-3-oxo-1-(4-(trifluoromethyl)phenyl)propan-2-yl)-1-(cyclopentylmethyl)-1H-indazole-5-sulfonamide]",10 to 30 µM
15,"NC1CCN(C(=O)[C@@H](NS(=O)(=O)c2ccc3c(cnn3CC3CCCC3)c2)C(F)(F)c2ccc(C(F)(F)F)cc2)CC1 [Compound 93-1, (R)—N-(3-(4-aminopiperidin-1-yl)-1,1-difluoro-3-oxo-1-(4-(trifluoromethyl)phenyl)propan-2-yl)-1-(cyclopentylmethyl)-1H-indazole-5-sulfonamide]",1 to 10 µM
16,"NC1CCN(C(=O)[C@H](NS(=O)(=O)c2ccc3c(cnn3CC3CCCC3)c2)C(F)(F)c2ccc(C(F)(F)F)cc2)CC1 [Compound 93-2, (S)—N-(3-(4-aminopiperidin-1-yl)-1,1-difluoro-3-oxo-1-(4-(trifluoromethyl)phenyl)propan-2-yl)-1-(cyclopentylmethyl)-1H-indazole-5-sulfonamide]",30 to 100 µM
17,"NC1CC2CCC(C1)N2C(=O)[C@@H](NS(=O)(=O)c1ccc2c(cnn2CC2CCCC2)c1)C(F)(F)c1ccc(-c2ccc(Cl)cc2)cc1 (stereo partly drawn) [Compound 94-1, N-((2R)-3-(3-amino-8-azabicyclo[3.2.1]octan-8-yl)-1-(4′-chloro-[1,1′-biphenyl]-4-yl)-1,1-difluoro-3-oxopropan-2-yl)-1-(cyclopentylmethyl)-1H-indazole-5-sulfonamide]",1 to 10 µM
18,"NC1CC2CCC(C1)N2C(=O)[C@H](NS(=O)(=O)c1ccc2c(cnn2CC2CCCC2)c1)C(F)(F)c1ccc(-c2ccc(Cl)cc2)cc1 (stereo partly drawn) [Compound 94-2, N-((2S)-3-(3-amino-8-azabicyclo[3.2.1]octan-8-yl)-1-(4′-chloro-[1,1′-biphenyl]-4-yl)-1,1-difluoro-3-oxopropan-2-yl)-1-(cyclopentylmethyl)-1H-indazole-5-sulfonamide]",10 to 30 µM
19,"NC1CCN(C(=O)[C@@H](NS(=O)(=O)c2ccc3c(cnn3CC3CCCC3)c2)C(F)(F)c2ccc(-c3ccc(Cl)cc3)cc2)CC1 [Compound 95-1, (R)—N-(3-(4-aminopiperidin-1-yl)-1-(4′-chloro-[1,1′-biphenyl]-4-yl)-1,1-difluoro-3-oxopropan-2-yl)-1-(cyclopentylmethyl)-1H-indazole-5-sulfonamide]",< 1 µM
20,"NC1CCN(C(=O)[C@H](NS(=O)(=O)c2ccc3c(cnn3CC3CCCC3)c2)C(F)(F)c2ccc(-c3ccc(Cl)cc3)cc2)CC1 [Compound 95-2, (S)—N-(3-(4-aminopiperidin-1-yl)-1-(4′-chloro-[1,1′-biphenyl]-4-yl)-1,1-difluoro-3-oxopropan-2-yl)-1-(cyclopentylmethyl)-1H-indazole-5-sulfonamide]",10 to 30 µM
21,"NC1CCN(C(=O)[C@@H](NS(=O)(=O)c2ccc3cc(OC4CCCC4)ccc3c2)C(F)(F)c2ccc(OC3CCCCC3)cc2)CC1 [Compound 97-1, (R)—N-(3-(4-aminopiperidin-1-yl)-1-(4-(cyclohexyloxy)phenyl)-1,1-difluoro-3-oxopropan-2-yl)-6-(cyclopentyloxy)naphthalene-2-sulfonamide]",1 to 10 µM
